We go through four molecules from BindingDB's records for PubMed 32539378 (Shandong University, 2020).

For one assay, the target named is Spike glycoprotein (Severe acute respiratory syndrome coronavirus 2, UniProt P0DTC2). The assay can be described thus: Inhibition of SARS-COV2 spike protein mediated infection of human ACE2 expressing cells at 50 uM […]. Background: Surface plasmon resonance follows binding to a sensor surface in real time, without labels.
Assay [1] is described as follows: Inhibition of SARS-COV2 spike protein mediated infection of human ACE2 expressing cells at 50 uM […].
Assay [2] addresses Angiotensin-converting enzyme 2 (Homo sapiens, UniProt Q9BYF1). As to the kind of experiment: Inhibition of SARS-COV2 S-RBD binding to human ACE2 expressed in HEK293T cells by NanoLuc luciferase assay.

Sequence of Angiotensin-converting enzyme 2 (Q9BYF1 whole entry): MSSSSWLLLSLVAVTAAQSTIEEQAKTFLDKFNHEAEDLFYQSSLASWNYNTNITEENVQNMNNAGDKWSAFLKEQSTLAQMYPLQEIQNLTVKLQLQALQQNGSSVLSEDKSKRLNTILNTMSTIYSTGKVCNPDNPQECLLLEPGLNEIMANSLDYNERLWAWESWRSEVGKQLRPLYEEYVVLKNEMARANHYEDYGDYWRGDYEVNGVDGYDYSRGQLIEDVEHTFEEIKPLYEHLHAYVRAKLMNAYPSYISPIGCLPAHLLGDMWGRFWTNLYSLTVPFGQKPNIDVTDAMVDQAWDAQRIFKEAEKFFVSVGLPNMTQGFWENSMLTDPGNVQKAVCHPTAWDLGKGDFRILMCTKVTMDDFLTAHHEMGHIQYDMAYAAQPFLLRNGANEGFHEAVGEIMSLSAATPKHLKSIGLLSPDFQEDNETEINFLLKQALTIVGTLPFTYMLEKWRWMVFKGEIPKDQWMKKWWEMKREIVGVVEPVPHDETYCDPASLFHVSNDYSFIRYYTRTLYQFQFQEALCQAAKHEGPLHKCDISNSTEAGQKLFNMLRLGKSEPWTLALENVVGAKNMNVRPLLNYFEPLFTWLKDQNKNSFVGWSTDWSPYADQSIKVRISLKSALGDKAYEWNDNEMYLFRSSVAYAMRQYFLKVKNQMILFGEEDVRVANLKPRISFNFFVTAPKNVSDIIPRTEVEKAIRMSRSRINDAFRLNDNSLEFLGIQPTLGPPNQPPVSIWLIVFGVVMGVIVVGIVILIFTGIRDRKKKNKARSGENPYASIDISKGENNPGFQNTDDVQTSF

`COc1cc(Cc2cnc(N)nc2N)cc2c(N(C)C)cc(C)nc12` registered a concentration for half-maximal inhibition (IC50) against Spike glycoprotein of 0.6 µM.

Regarding `O=c1cc(-c2ccc(O)c(O)c2)oc2cc(O)cc(O)c12` [2-(3,4-dihydroxyphenyl)-5,7-dihydroxy-4H-chromen-4-one], the IC50 in assay [1] worked out at 10.6 µM.

In assay [2], `COc1cc(C)nc2c(OC)cc(Cc3cnc(N)nc3N)cc12` had an IC50 of 0.7 µM. In turn, `O=C(OC[C@H]1O[C@@H](OC(=O)c2cc(O)c(O)c(O)c2)[C@H](OC(=O)c2cc(O)c(O)c(O)c2)[C@H](OC(=O)c2cc(O)c(O)c(O)c2)[C@@H]1O)c1cc(O)c(O)c(O)c1` [med.21724, Compound 2] came in with an IC50 in assay [1] of 4.5 µM.

By IC50 is commonly meant the midpoint of a concentration-inhibition curve.
